Reference: patent US4714619A, “Aminomalonyl alanine compounds as dietary sweeteners” (priority 1986, dated 1987)
Entries after “also recorded” stand apart in the source; their conditions may differ. Read-outs that look alike come from different tables or passages of the source.

Columns and labels:
[1] = neonatal mice; cited from earlier work
[2] = monkeys; cited from earlier work
[3] = cited from earlier work
[4] = Comparative taste test, D- versus L-configuration (Table 2, FIG. 3); set-up: Sweet? (average score) / Bitter? (average score) / Salty? (average score) / Off Taste? (average score) / After Taste? (average score): scale not given here
Method: The compounds were dissolved in distilled water at the concentrations specified in Table 2. Solutions were made up and kept overnight in a refrigerator. The following day, they were poured into individual graduated plastic cups (10 ml per cup) and allowed to warm to room temperature. A taste panel was convened and testing begun that same day. Tasting and evaluation was done by the standard protocol developed by Dr. Robert Gesteland of Taste and Smell Consulting Group, Inc.
The first solution tasted (reference standard for the panel) was 0.25M sucrose. Other solutions were tasted in radomized fashion. The random order was arrived at as follows:
i. An ordered list of the compounds and concentrations was prepared (26 solutions in all).
ii. 0.25M sucrose was designated as 1.
iii. A standard table of random numbers was used in which the numbers were grouped as two-digit numbers. A point in the table was chosen at random (blind pointing). The first solution in the list was given the first random number in the sequence (read right-to-left, up-to-down) which is between 2 and 26. The second solution in the list was given the next random number in the sequence between 2 and 26, etc. Repeat numbers were ignored.
iv. Solutions were then labeled A (for number 1) B (for random number 2), C-Z.
v. Panelists were instructed to taste the solutions in alphabetical order.
With the assistance of Taste and Smell Consulting Group, Inc., taste panel members were trained adn tested for their ability to discriminate sucrose solutions of varying concentrations. In summary it may be stated that all 9 panel members had acceptble correlation scores. Their results were in good agreement with those which have been previously reported in siilar types of studies. For the test series the correlations for each panelist for sucrose and aspartame were acceptable as were the overall results obtained by averaging individual scores. The results of the taste panel are set forth in Table 2 wherein the parenthetical figures represent the standard error values for the number above.

[5] = Stability in aqueous solution (hplc, ambient temperature); format: physicochemical; conditions: for degraded at 864 h: 0.05m phosphate buffer, ambient temperature, read-out: degradation
Method: Stability was examined in aqueous solution at various pHs. Solutions (1% w/v) were prepared in 0.05M phosphate buffer adjusted to pH 7.4 and pH 3.5. Storage at ambient temperature over 36 days was monitored by hplc analysis (waters radial-pak reverse phase C-8 column, 25% CH3 CN, 0.05% TFA/H2 O eluant, 210 nm U.V. detection). Aspartame was examined similarly for comparison purposes.

[6] = tested on: five Salmonella strains; experiment: Ames/Salmonella mutagenicity assay; format: cell-based; conditions: 0.3-3000 ug/plate, with and without S9; toxicity at the two highest doses
Method: The isopropyl ester was tested for mutuagenic potential in the Ames assay employing: (1) five Salmonella strains which detect frameshift mutagens or base-pair substitution mutagens, (2) both the presence and absence of mammalian S9 microsomal liver fraction as the metabolic activator, which differentiate promutagens from direct-acting mutagens, (3) five dose levels (3000, 300, 30, 3, 0.3 ug/plate), and (4) three plates per dose. The compound was also tested for toxicity, with and without S9 activation, at the two highest doses. […] Positive controls and spontaneous background revertants were within acceptable ranges.

[7] = Acute oral toxicity testing; format: in vivo, Swiss male mice
Method: The isopropyl ester was evaluated for acute oral toxicity in Swiss male mice. The testing parameters were as follows: each test group contained six mice (20-30 grams each); the isopropyl ester was administered in an aqueous solution as a single oral dose of 100 mg/kg and 300 mg/kg; two solvent controls were also administered; the mice were again given food two hours after sample administration.
Body weights were measured on day -3, 0, +7 and +14. Physiological parameters were examined the entire first day, then three times a day through the first week and twice a day for the second week. Blood serum analyses for urea nitrogen and alanine aminotransferase activities were measured on day -3 and day +14. On day 14, a gross necropsy was performed on each mouse.
Blood samples were collected from the tail vein for biochemical testing of serum samples. This procedure virtually eliminated hemolyzed samples.

[8] = Taste panel (Table 1, FIG. 2); conditions: for After Taste? (average score) / Bitter? (average score) / Off Taste? (average score) / Pleasant? (average score) / Salty? (average score) / Sweet? (average score): normalized to 100
[9] = single oral dose 100 and 300 mg/kg, 14 days

N[C@@H](CC(=O)O)C(=O)O [aspartic acid]
brain lesions [1]: causes brain lesions in neonatal mice

N[C@@H](Cc1ccccc1)C(=O)O [phenylalanine]
grand mal-type seizures [2]: reported to induce grand mal-type seizures in monkeys | behavioral changes and brain chemistry ([3]; in vivo): induce behavioral changes, and alter brain chemistry | birth defects ([3]; pregnant women with phenylketonuria): produce birth defects in pregnant women with phenylketonuria

CC(C)OC(=O)[C@@H](C)NC(=O)C(N)C(=O)O (mixture of isomers) [Compound (8), DL-Aminomalonyl-D-Alanine Isopropyl Ester]
sweet taste (words) [4]: sweet | After Taste? (average score) ([4]; 0.0431 Millimolar): 0 | Bitter? (average score) ([4]; 0.0431 Millimolar): 1 | Off Taste? (average score) ([4]; 0.0431 Millimolar): 2 | Pleasant? (average score) ([4]; 0.0431 Millimolar): 15 | Salty? (average score) ([4]; 0.0431 Millimolar): 1 | Sweet? (average score) ([4]; 0.0431 Millimolar): 2 | After Taste? (average score) ([4]; 0.4307 Millimolar): 7 | Bitter? (average score) ([4]; 0.4307 Millimolar): 12 | Off Taste? (average score) ([4]; 0.4307 Millimolar): 8 | Pleasant? (average score) ([4]; 0.4307 Millimolar): 10 | Salty? (average score) ([4]; 0.4307 Millimolar): 11 | Sweet? (average score) ([4]; 0.4307 Millimolar): 1 | After Taste? (average score) ([4]; 4.3066 Millimolar): 5 | Bitter? (average score) ([4]; 4.3066 Millimolar): 0 | Off Taste? (average score) ([4]; 4.3066 Millimolar): 3 | Pleasant? (average score) ([4]; 4.3066 Millimolar): 24 | Salty? (average score) ([4]; 4.3066 Millimolar): 12 | Sweet? (average score) ([4]; 4.3066 Millimolar): 28 | degraded at 864 h ([5]; pH 3.5, 36 days): < 5% | degraded at 864 h ([5]; pH 7.4 buffer, 36 days): 70% | improvement in stability relative to aspartame ([5]; pH 3.5, 36 days): ten fold improvement in stability | mutagenic potential and toxicity in Ames assay [6]: neither mutagenic potential nor toxicity | gross necropsy ([7]; day 14, 100 and 300 mg/kg oral): No toxic effects were detected | kidney and liver toxicity ([7]; from serum urea nitrogen and alanine aminotransferase, 100 and 300 mg/kg oral): absence of kidney and liver toxicity | serum urea nitrogen and alanine aminotransferase activity ([7]; post-study samples, 100 or 300 mg/kg oral): Neither elevated serum urea nitrogen nor elevated alanine aminotransferase activity were detected | behavioral or pharmacological effects ([7]; single oral dose 100 and 300 mg/kg): no behavioral or pharmacological effects were observed | body weights ([7]; single oral dose 100 and 300 mg/kg, 14-day study): normal | acute oral toxicity [7, 9]: no toxic effect; also recorded: nontoxic at all doses tested | eating or drinking [7, 9]: no excessive eating or drinking | After Taste? (average score) ([8]; 0.8621 Millimolar): 4 | Bitter? (average score) ([8]; 0.8621 Millimolar): 7 | Off Taste? (average score) ([8]; 0.8621 Millimolar): 13 | Pleasant? (average score) ([8]; 0.8621 Millimolar): -11 | Salty? (average score) ([8]; 0.8621 Millimolar): 21 | Sweet? (average score) ([8]; 0.8621 Millimolar): 4 | After Taste? (average score) ([8]; 3.0172 Millimolar): 6 | Bitter? (average score) ([8]; 3.0172 Millimolar): 3 | Off Taste? (average score) ([8]; 3.0172 Millimolar): 2 | Pleasant? (average score) ([8]; 3.0172 Millimolar): 13 | Salty? (average score) ([8]; 3.0172 Millimolar): 5 | Sweet? (average score) ([8]; 3.0172 Millimolar): 32 | After Taste? (average score) ([8]; 9.0517 Millimolar): 4 | Bitter? (average score) ([8]; 9.0517 Millimolar): 1 | Off Taste? (average score) ([8]; 9.0517 Millimolar): 3 | Pleasant? (average score) ([8]; 9.0517 Millimolar): 34 | Salty? (average score) ([8]; 9.0517 Millimolar): 3 | Sweet? (average score) ([8]; 9.0517 Millimolar): 61 | aftertaste / side tastes ([8]; compared to saccharin): does not possess a "metallic" aftertaste, and there are virtually no detracting side tastes | sweetness potency (reciprocal of concentration required for a score of 50) ([8]; sucrose=1.0, weight scale): 58 | onset and decay of sweet taste ([8]; taste panel): rapid onset and a rapid decay of sweet taste | taste quality ([8]; taste panel): uncommon sucrose-like sweet taste that is free of detracting side and after tastes; also recorded: sweet and pleasant | sweetness relative to aspartame ([8]; weight basis): about half as sweet as aspartame | times sweeter than sucrose ([8]; weight basis): 58 times
